Measurements published in US10822587B2, “T cell balance gene expression, compositions of matters and methods of use thereof” (The Broad Institute, Inc., priority 2013, dated 2020).
“Also recorded” adds a separate entry of the source.

Tests used:
[1] = test system: Th17 cells; assay: IL-17 / IFN-γ production of Th17 cells differentiated with activated protein C (intracellular staining, ELISA); assay type: cell-based, mouse; settings: aPC 300 nM, anti-CD3/anti-CD28, TGF-β+IL-6; flow cytometry day 3, ELISA day 3 and 5
Protocol: FIG. 20A depicts how naïve CD4+ T cells were differentiated into Th17 cells by anti-CD3/anti-CD28 stimulation in the presence of activated protein C (aPC, 300 nM), the ligand of PROCR. On day 3, cells were stimulated with PMA and Ionomycin for 4 hr, stained intracellularly for IFN-γ and IL-17 and analyzed by flow cytometry. FIG. 20B depicts IL-17 production from Th17 cells (TGF-β+IL-6) differentiated with or without activated protein C (aPC and Ctl, respectively) was assessed by ELISA on Day 3 and 5. FIG. 20C depicts how naïve CD4+ T cells were polarized under Th17 conditions (TGF-β+IL-6), transduced with either GFP control retrovirus (Ctl RV) or PROCR-expressing retrovirus (PROCR RV). Intracellular expression of IFN-γ and IL-17 in GFP+ cells were assessed by flow cytometry. FIG. 20D depicts how naïve CD4+ T cells from EPCR δ/δmice and control mice were polarized under Th17 conditions with TGF-β1 and IL-6. Intracellular expression of IFN-γ and IL-17 were assessed by flow cytometry. […]
Naïve T cells from knockout mice and their wild type controls were cultured as described above, their supernatants were collected after 72 h, and cytokine concentrations were determined by ELISA (antibodies for IL-17 and IL-10 from BD Bioscience) or by cytometric bead array for the indicated cytokines (BD Bioscience), according to the manufacturers' instructions (FIG. 5, FIG. 16).

[2] = target: T1, PROCR (Mus musculus, UniProt Q64695); assay: Quantitative RT-PCR of pathogenic signature genes in Th17 cells differentiated in the presence of activated protein C; assay type: cell-based
T1 construct: endogenous in cells; host or cells: primary naïve CD4+ T cells (mouse spleen/lymph node) polarized to Th17 with TGF-β1 + IL-6
T1 sequence (Q64695 18-242): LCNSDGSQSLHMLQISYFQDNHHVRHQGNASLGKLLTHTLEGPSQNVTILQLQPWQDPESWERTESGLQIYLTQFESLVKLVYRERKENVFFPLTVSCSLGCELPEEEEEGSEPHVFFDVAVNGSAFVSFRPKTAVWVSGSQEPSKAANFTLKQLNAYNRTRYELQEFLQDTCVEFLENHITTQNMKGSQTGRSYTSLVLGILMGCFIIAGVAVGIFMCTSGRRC
From the text: FIG. 23A depicts quantitative RT-PCR analysis of mRNA expression of several pathogenic signature genes in Th17 cells differentiated with TGFβ1 and IL-6 in the presence of activated protein C (aPC) for 3 days in vitro. FIG. 23B depicts quantitative RT-PCR analysis of mRNA expression of several pathogenic signature genes in naïve CD4^+ T cells polarized under Th17 conditions, transduced with either GFP control retrovirus (Control RV) or PROCR-expressing retrovirus (PROCR RV) for 3 days. FIG. 23C depicts quantitative RT-PCR analysis of mRNA expression of several pathogenic signature genes in Th17 cells from EPCR δ/δmice and control mice differentiated with TGFβ1 and IL-6 for 3 days in vitro.
FIGS. 32A, 32B, 32C and 32D are a series of graphs depicting how PROCR and PD-1 expression affects Th17 pathogenicity. FIG. 32A depicts signature genes of pathogenic and non-pathogenic Th17 cells. Naïve CD4+ T cells were differentiated into non-pathogenic (TGFβ+IL-6) or pathogenic (TGFβ3+IL-6 or IL-β+IL-6) Th17 cells and PROCR expression was determined by quantitative PCR. FIG. 32B depicts how naïve WT or PROCRd/d CD4+ T cells were stimulated under Th17 polarizing conditions (TGFβ+IL-6) in the presence or absence of aPC. Quantitative expression of three pathogenic signature genes was determined on day 3. […] Mice were monitored for EAE. […]. […]

activated protein C
cytokine production (IL-17, IFN-γ) from Th17 cells [1]: not essential for cytokine production from Th17 cells | mRNA expression of pathogenic signature genes ([2]; Th17 cells differentiated with TGFβ1 and IL-6 in the presence of aPC for 3 days in vitro): impairs some pathogenic signature genes in Th17 cells; also recorded: induces a downregulation of the pathogenic signature genes IL-3, CXCL3, CCL4 and Pdp; also recorded: decreased the expression of some of the genes identified as a part of the pathogenic signature of Th17 cells | expression of non-pathogenic signature genes ([2]; Th17 polarizing conditions (TGFβ+IL-6) in the presence or absence of aPC, day 3): induces some non-pathogenic signature genes
